Values quoted from earlier work in US20030100493A1, “Sublingual use of inhibitors in the biosynthesis of cholesterol” (priority 2001, published 2003).

What was measured:
[1] = in vivo
[2] = sublingual; coronary patient
cholesterol synthesis = details: compared with the other statins

Structure (SMILES) | passage of the blood brain barrier [1] | also measured
CC(C)n1c(/C=C/C(O)CC(O)CC(=O)O)c(-c2ccc(F)cc2)c2ccccc21 (stereo not shown) [Fluvastatin] | do not pass the blood brain barrier | –
O=[N+]([O-])OCC(CO[N+](=O)[O-])O[N+](=O)[O-] [Nitroglycerin] | – | duration of effect (short lasting effect) [2]: five to ten
CC[C@H](C)C(=O)O[C@H]1C[C@H](O)C=C2C=C[C@H](C)[C@H](CC[C@@H](O)C[C@@H](O)CC(=O)O)[C@H]21 [Pravastatin] | do not pass the blood brain barrier | –
CC(C)c1nc(N(C)S(C)(=O)=O)nc(-c2ccc(F)cc2)c1/C=C/[C@@H](O)C[C@@H](O)CC(=O)O [Rosuvastatin] | – | potency as an inhibitor of cholesterol synthesis (cholesterol synthesis): significantly higher potency
